Measurements reported in US12582645B2, “Chemokine CXCR4 receptor modulators and uses related thereto” (Emory University, priority 2017, dated 2026).

target: T1, CXCR4 (Homo sapiens, UniProt P61073); experiment: CXCR4-CEM calcium flux assay, antagonist mode (inhibition of SDF-1α-induced calcium flux); type: cell-based; conditions: CCRF-CEM cells expressing endogenous CXCR4, stimulated with 4 nM SDF-1α, read-out: CXCR4 Ca^2+ Flux IC50
T1 construct: Human T lymphoblast cells (CCRF-CEM) expressing endogenous CXCR4 receptors; endogenous in cells; host or cells: CCRF-CEM (human T lymphoblast cells)
T1 sequence (P61073 whole entry): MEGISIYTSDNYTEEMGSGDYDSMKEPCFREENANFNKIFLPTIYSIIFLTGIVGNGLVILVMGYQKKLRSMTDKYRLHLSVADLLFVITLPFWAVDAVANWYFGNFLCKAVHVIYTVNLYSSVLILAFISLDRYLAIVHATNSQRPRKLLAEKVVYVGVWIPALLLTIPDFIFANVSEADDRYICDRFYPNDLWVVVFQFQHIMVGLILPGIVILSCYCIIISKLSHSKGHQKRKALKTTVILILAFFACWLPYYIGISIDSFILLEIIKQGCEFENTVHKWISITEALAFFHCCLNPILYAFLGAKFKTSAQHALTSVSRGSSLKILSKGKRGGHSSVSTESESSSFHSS
Procedure: CXCR4-CEM Calcium Flux Assays
Exemplary compounds of the invention were tested for their ability to induce or inhibit calcium flux in CCRF-CEM cells, a human cell line that endogenously expresses CXCR4. Activation of CXCR4 stimulates G protein signaling which, in CCRF-CEM cells, causes a series of downstream events that leads to the release of intracellular calcium stores, or calcium flux. Calcium ion concentrations can be easily measured using a wide variety of […] calcium indicators and, as a result, calcium flux assays are commonly employed methods for measuring G protein-coupled receptor (GPCR) activity. Because the therapeutic potential of CXCR4 antagonists as anti-cancer agents likely relies on their ability to inhibit CXCR4-mediated G protein signaling, this assay was utilized as a first-pass measure of inhibitor potency.
The cells were then equilibrated to room temperature for 30 minutes before assay. […] For “antagonist mode” assessment, the cells are subsequently incubated for 25 minutes at room temperature. SDF-1α (R&D System Cat #350-NS/CF) was then added at a final concentration of 4 nM to stimulate the cells. Inhibition of SDF-1α-induced calcium flux was monitored by FDSS6000 for 90 seconds.
After correcting for background, EC50 values were determined. […] Inhibition data for the test compound over a range of concentrations was plotted as percentage inhibition of the test compound as compared to an internal control compound.

IC50 [nM]	Structure (SMILES)
1000	CN(CC1CN(Cc2ccccn2)CCN1)[C@H]1CCCc2cccnc21 (single isomer, unassigned) [EMU023 (Stereoisomer 2)]
> 33300	CN(CC1CN(Cc2ccccn2)CCN1)[C@H]1CCCc2cccnc21 (single isomer, unassigned) [EMU023]
6.42	NCC1CC1CN(C[C@H]1Cc2ccccc2CN1)[C@H]1CCCc2cccnc21 (single isomer, unassigned) [EMU030 (Stereoisomer 1)]
19.1	NCC1CC1CN(C[C@H]1Cc2ccccc2CN1)[C@H]1CCCc2cccnc21 (single isomer, unassigned) [EMU030 (Stereoisomer 2)]
6.08	CN(CC1Cc2c(cccc2N2CCNCC2)CN1)[C@H]1CCCc2cccnc21 (single isomer, unassigned) [EMU034 (Stereoisomer 1)]
314	CN(CC1Cc2c(cccc2N2CCNCC2)CN1)[C@H]1CCCc2cccnc21 (single isomer, unassigned) [EMU034 (Stereoisomer 2)]
18.1	CN(CC1Cc2c(cccc2NC2CCNCC2)CN1)[C@H]1CCCc2cccnc21 (single isomer, unassigned) [EMU044 (Stereoisomer 1)]
1700	CN(CC1Cc2c(cccc2NC2CCNCC2)CN1)[C@H]1CCCc2cccnc21 (single isomer, unassigned) [EMU044 (Stereoisomer 2)]
33.4	CN(CC1Cc2c(cccc2N2CCC(N)CC2)CN1)[C@H]1CCCc2cccnc21 (single isomer, unassigned) [EMU058]
33.7	NC1CCC(N(C[C@H]2Cc3ccccc3CN2)[C@H]2CCCc3cccnc32)CC1 (single isomer, unassigned) [EMU073 (Stereoisomer 1)]
61	C[C@@H]1CN(c2cccc3c2CC(CN(C)[C@H]2CCCc4cccnc42)NC3)C[C@H](C)N1 (single isomer, unassigned) [EMU096 (Stereoisomer 1)]
3840	C[C@@H]1CN(c2cccc3c2CC(CN(C)[C@H]2CCCc4cccnc42)NC3)C[C@H](C)N1 (single isomer, unassigned) [EMU096 (Stereoisomer 2)]
715	c1cnc2c(c1)CCC[C@@H]2N(CC1CCCCC1)CC1Cc2c(cccc2N2CCNCC2)CN1 (single isomer, unassigned) [EMU100 (Stereoisomer 1)]
1290	c1cnc2c(c1)CCC[C@@H]2N(CC1CCCCC1)CC1Cc2c(cccc2N2CCNCC2)CN1 (single isomer, unassigned) [EMU100 (Stereoisomer 2)]
25.6	NC/C=C\CN(CC1Cc2ncccc2CN1)[C@H]1CCCc2cccnc21 (single isomer, unassigned) [EMU142 (Stereoisomer 1)]
503	NC/C=C\CN(CC1Cc2ncccc2CN1)[C@H]1CCCc2cccnc21 (single isomer, unassigned) [EMU142 (Stereoisomer 2)]
> 33300	CN(CC1Cc2ncccc2CN1)[C@H]1CCCc2cccnc21 (single isomer, unassigned) [EMU174 (Stereoisomer 1)]
476	CN(CC1Cc2ncccc2CN1)[C@H]1CCCc2cccnc21 (single isomer, unassigned) [EMU174 (Stereoisomer 2)]
146	NC/C=C/CN(CC1Cc2ncccc2CN1)[C@H]1CCCc2cccnc21 (single isomer, unassigned) [EMU192 (Stereoisomer 1)]
17000	NCc1ccc(CN(CC2Cc3ncccc3CN2)[C@H]2CCCc3cccnc32)cc1 (single isomer, unassigned) [EMU193]
111	NCc1ccc(CN(CC2Cc3ncccc3CN2)[C@H]2CCCc3cccnc32)cc1 (single isomer, unassigned) [EMU194]
463	NC(=O)NC/C=C\CN(CC1Cc2ncccc2CN1)[C@H]1CCCc2cccnc21 (single isomer, unassigned) [EMU209 (Stereoisomer 1)]
430	NC(=O)NC/C=C/CN(CC1Cc2ncccc2CN1)[C@H]1CCCc2cccnc21 (single isomer, unassigned) [EMU212 (Stereoisomer 1)]
10.3	CN(C[C@H]1Cc2c(cccc2N2CC3CNCC3C2)CN1)C1CCCc2cccnc21 (stereo partly drawn) [EMU062]
